Like-named read-outs stand apart in the source and are kept apart here.

Assay [1] deals with human colorectal carcinoma cell line HCT116. The assay can be described thus: In vitro tumor cell proliferation inhibition (MTT): HCT116. It counts as cell-based. An excerpt: (§1) The purpose of the experiment was to test the inhibition activity of the compounds of the invention for in vitro human tumor cell proliferation by the methyl thiazolyl tetrazolium (MTT) colorimetry.
(§2) Main reagents: RPMI-1640, fetal bovine serum, pancreatin, etc. were purchased from Gibco BRL Company (Invitrogen Corporation, USA) and IMDM medium that was purchased from American Type Culture Collection (ATCC). Methyl thiazolyl tetrazolium (MTT) and dimethyl sulfoxide (DMSO) were products from Sigma Company (USA). Pyrazolopyrimidine derivatives were composed by the inventor. During in vitro experiment, 100% DMSO was prepared into 10 mM storage solution, the solution was stored in a refrigerator at −20° C. for future use, and was diluted to the required concentration with complete culture solution before use.
(§3) Cell line and culture: Human leukemia cell line MV4-11, Jurkat, K562, human thyrophyma cell line TT, human gastric carcinoma cell line MKN-45, human malignant melanoma cell lines A375 and A875, human pancreatic carcinoma cell line panc-1, human cervical carcinoma cell line HELA, human colorectal carcinoma cell line HCT116, etc. were purchased from American type culture collection and were preserved by this laboratory. All leukemia cell lines (except MV4-11), gastric carcinoma cell lines and thyrophyma cell lines were cultured in RPMI-1640 complete medium containing 10% fetal bovine serum, 100 U/mL penicillin and 100 μg/mL streptomycin at 37° C. in 5% CO2. The remaining cell lines were cultured in DMEM complete medium containing 10% fetal bovine serum (containing 20% MV4-11 cell), 100 U/mL penicillin and 100 µg/mL streptomycin at 37° C. in 5% CO2.
(§4) Cell suspension with cell concentration of 1-2×10^4/mL was adjusted with the complete cell medium and inoculated in a 96-well plate, with each well filled with 200 μl cell suspension that was cultured overnight. On the next day, supernatant was sucked and abandoned (supernatant was sucked upon centrifugation of suspension cells), and then cells were processed with test compounds at gradient concentrations respectively. Meanwhile, a negative control group free from drug and a solvent control group with equal volume were set, and the DMSO concentration was 0.1%. Each dose group was provided with three wells and cultured at 37° C. in 5% CO2. After 72 hours, 20 μl 5 mg/mL MTT reagent was added to each well, and cultured for another 2 to 4 hours, the supernatant was abandoned; 150 μL DMSO was added to each well again, vibrated and mixed evenly for 15 minutes; the absorbance (A) values (proportional to living cell amount) were determined with a microplate reader (λ=570 nm) and averaged. […] Experiment was repeated for 3 times at least. Experimental data were expressed with means, data statistics were tested by t, and P<0.05 means that difference has a statistical significance. The cell proliferation inhibition effects of all compounds as follows are expressed by IC50 or inhibition rate.

The test system of assay [2] is human malignant melanoma cell line A875. The assay can be described thus: In vitro tumor cell proliferation inhibition (MTT): A875. In kind it is cell-based.
Description: as §1, §2, §3, §4

In a further assay the target is c-KIT (Homo sapiens, UniProt P10721). The assay can be described thus: Kinase inhibition activity test, isotope labeling: c-KIT. In kind it is biochemical. Conditions: for Activity inhibition rate c-Kit (h) / inhibition at 10 µM: test compound at a concentration of 10 μM; for inhibition at 10 µM: read-out: Activity inhibition rate c-Kit (h); for IC50: ATP 200 μM, read-out: c-KIT IC50 value (inhibitory activity value). The protocol: (§5) The purpose of this experiment was to test the inhibitory activity of the compound of the invention for in vitro kinase with the isotope labeling method (the γ phosphate group on ATP was labeled). In this experiment, the in vitro activity inhibition of such kinases as FLT3, VEGFR2, FLT1, FLT4, RET, c-RAF, B-RAF, c-KIT, PDGFα, PDGFβ, FGFR2, FGFR1, EphA2, EphB2, SRC, ABL, ALK and Met was tested respectively. Staurosporine was reference molecule (or referred to as positive control). The kinase inhibition activity of the test compound was expressed by half-inhibitory concentration (IC50) or the kinase activity inhibition rate of the test compound at a concentration of 10 μM. The IC50 value could be obtained by calculating the kinase activity inhibition rate of the test compound at different concentrations.
(§6) 20 mM 3-(N-morpholinyl)propanesulfonic acid (MOPS); 1 mM ethylenediaminetetraacetic acid (EDTA), 0.01% Brij 35 (Brij-35), 5% glycerol, 0.1% mercaptoethanol, 1 mg/mL bovine serum albumin (BSA), 10 mM manganous dichloride solution (MnCl2), 0.1 mg/mL glutamic acid/tyrosine (4:1) polypeptide (poly(Glu, Tyr)4:1), 50 μM EAIYAAPFAKKK (substrate of FLT3), 0.33 mg/mL myelin basic protein (substrate of VEGFR2), 250 μM KKKSPGEYVNIEFG (substrate of FLT1(h)), 500 μM GGEEEEYFELVKKKK (substrate of FLT4(h)), 250 μM KKKSPGEYVNIEFG (substrate of RET), 0.66 mg/mL myelin basic protein (substrate of C-RAF), 250 μM GGMEDIYFEFMGGKKK (substrate of c-Kit), 250 μM GGMEDIYFEFMGGKKK (substrate of PDGFα), 250 μM KKKSPGEYVNIEFG (substrate of FGFR1), […] GGEEEEYFELVKKKK (substrate of SRC), 50 μM EAIYAAPFAKKK (substrate of ABL), 250 μM KKKSPGEYVNIEFG (substrate of ALK), 250 μM KKKSPGEYVNIEFG (substrate of Met(h)), 10 mM magnesium acetate and γ-^33 P-ATP solution, stop buffer (3% phosphate buffer), washing buffer (75 mM phosphate solution), methanol, Filtermat A membrane, FLT3, VEGFR2, FLT3, VEGFR2, FLT1, FLT4, RET, c-RAF, B-RAF, c-KIT, PDGFRα, PDGFRβ, FGFR2, FGFR1, EphA2, EphB2, SRC, ABL, ALK, Met and other kinases, and the test compounds.
(§7) Buffers (8 mM MOPS with pH value of 7.0, 0.2 mM EDTA and 10 mM MnCl2), (5-10 mU) kinases to be tested (FLT3, VEGFR2, FLT1, FLT4, RET, c-RAF, B-RAF, c-KIT, PDGFRα, PDGFRβ, FGFR2, FGFR1, EphA2, EphB2, SRC, ABL, ALK and Met), substrates of kinases to be tested (refer to experimental materials), 10 mM magnesium acetate and γ-^33 P-ATP solution, and test compounds at different concentrations were added to a reaction tube orderly. […] Reaction was terminated with 5 μL 3% phosphate buffer finally, and 10 μL reaction solution was titrated to the Filtermat A membrane; solution was washed for 3 times with 75 mM phosphate solution with each time lasting 5 minutes, and then washed once with methanol. Finally, the Filtermat A membrane was dried, and scintillation counting was performed on the membrane, with scintillation count reflecting the phosphorylation degree of the substrates, so that the activity inhibition of kinase could be characterized.

Assay [3] deals with human malignant melanoma cell line A375. The assay can be described thus: In vitro tumor cell proliferation inhibition (MTT): A375. It counts as cell-based.
Description: as §1, §2, §3, §4

For the next assay, the target named is FGFR2 (Homo sapiens, UniProt P21802). The assay can be described thus: Kinase inhibition activity test, isotope labeling: FGFR2. Conditions: for Activity inhibition rate FGFR2 (h) / inhibition at 10 µM: test compound at a concentration of 10 μM; for inhibition at 10 µM: read-out: Activity inhibition rate FGFR2 (h); for IC50: ATP 90 μM, read-out: FGFR2 IC50 value (inhibitory activity value). It counts as biochemical. The protocol: as §5, §6, §7

Assay [4] deals with human cervical carcinoma cell line HELA. The assay can be described thus: In vitro tumor cell proliferation inhibition (MTT): HELA. It counts as cell-based. Conditions: 72 hours.
Description: as §1, §2, §3, §4

The mark [5] stands for this setting: 72 hours, read-out: Proliferation inhibition activity (IC50) HCT 116.
The mark [6] stands for this setting: Homo sapiens, HCT-116, 72 hours.

c-KIT, sequence (P10721 26-976): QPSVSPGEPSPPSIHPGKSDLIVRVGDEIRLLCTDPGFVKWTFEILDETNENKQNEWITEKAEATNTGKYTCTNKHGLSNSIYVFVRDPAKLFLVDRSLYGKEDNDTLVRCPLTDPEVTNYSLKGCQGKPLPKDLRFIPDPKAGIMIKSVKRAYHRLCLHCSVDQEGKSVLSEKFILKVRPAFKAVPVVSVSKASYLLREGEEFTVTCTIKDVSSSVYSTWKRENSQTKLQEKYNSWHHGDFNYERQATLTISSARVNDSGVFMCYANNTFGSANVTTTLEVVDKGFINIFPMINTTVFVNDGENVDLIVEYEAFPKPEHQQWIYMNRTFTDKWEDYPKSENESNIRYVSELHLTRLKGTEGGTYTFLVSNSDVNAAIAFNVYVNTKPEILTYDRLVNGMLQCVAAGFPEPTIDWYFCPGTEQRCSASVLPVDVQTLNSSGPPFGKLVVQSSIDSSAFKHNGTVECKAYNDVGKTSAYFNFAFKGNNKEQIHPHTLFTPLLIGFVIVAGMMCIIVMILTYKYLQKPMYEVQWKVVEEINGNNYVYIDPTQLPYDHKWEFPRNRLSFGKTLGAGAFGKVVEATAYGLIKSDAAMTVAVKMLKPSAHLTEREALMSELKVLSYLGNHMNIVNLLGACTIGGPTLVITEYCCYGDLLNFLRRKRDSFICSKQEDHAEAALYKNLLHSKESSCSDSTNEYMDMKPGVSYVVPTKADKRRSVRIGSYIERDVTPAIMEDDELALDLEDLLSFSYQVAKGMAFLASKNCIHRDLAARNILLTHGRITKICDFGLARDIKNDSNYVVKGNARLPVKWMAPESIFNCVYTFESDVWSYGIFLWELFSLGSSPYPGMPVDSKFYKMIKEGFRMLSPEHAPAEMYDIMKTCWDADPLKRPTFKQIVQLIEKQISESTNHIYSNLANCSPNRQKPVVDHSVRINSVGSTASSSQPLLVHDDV
FGFR2, sequence (P21802 22-821): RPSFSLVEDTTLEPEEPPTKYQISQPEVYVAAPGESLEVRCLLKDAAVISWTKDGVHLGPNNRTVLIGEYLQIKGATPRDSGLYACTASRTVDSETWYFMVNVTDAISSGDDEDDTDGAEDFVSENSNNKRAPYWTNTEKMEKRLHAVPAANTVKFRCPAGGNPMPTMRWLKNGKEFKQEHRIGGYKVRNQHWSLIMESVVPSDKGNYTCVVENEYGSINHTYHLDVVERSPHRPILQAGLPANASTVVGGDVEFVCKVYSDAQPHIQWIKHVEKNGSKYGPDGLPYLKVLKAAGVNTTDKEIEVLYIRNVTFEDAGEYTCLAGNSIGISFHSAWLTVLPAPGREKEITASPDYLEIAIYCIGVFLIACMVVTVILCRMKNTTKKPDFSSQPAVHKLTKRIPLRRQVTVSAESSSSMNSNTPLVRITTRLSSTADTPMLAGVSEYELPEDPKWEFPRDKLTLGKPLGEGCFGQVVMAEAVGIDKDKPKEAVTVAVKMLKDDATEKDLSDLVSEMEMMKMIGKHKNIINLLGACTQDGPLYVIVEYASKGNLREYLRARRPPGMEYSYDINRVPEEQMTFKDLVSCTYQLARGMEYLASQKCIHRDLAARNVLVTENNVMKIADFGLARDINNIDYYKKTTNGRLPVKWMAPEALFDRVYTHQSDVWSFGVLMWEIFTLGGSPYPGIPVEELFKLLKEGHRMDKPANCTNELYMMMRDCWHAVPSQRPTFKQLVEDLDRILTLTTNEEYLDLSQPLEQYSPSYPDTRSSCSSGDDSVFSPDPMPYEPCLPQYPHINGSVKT

As for “1-(4-((1H-pyrazolopyrimidine-4-yl)oxy)-3-fluorophenyl)-3-(3-trifluoromethoxy)phenyl)urea [4a-8]”, the IC50 in assay [1] (setting [5]) is 5.7 µM; in assay [2] (72 hours), 6.97 µM; in assay [3] (72 hours) it was 4.65 µM; in assay [4], 8.49 µM. In addition, the “Activity inhibition rate c-Kit (h)” value at c-KIT was determined as 95%. At FGFR2, the “Activity inhibition rate FGFR2 (h)” value was 6%.

For the molecule “1-(4-((1H-pyrazolopyrimidine-4-yl)oxy)phenyl)-3-(methylcyclohexyl)urea [4a-20]”, the IC50 in assay [1] (setting [5]), in assay [2] (72 hours), in assay [3] (72 hours) and in assay [4] was less than 50 µM in each case. In addition, the “Activity inhibition rate c-Kit (h)” value at c-KIT was determined as 98%. In addition, at FGFR2, the “Activity inhibition rate FGFR2 (h)” value was found to be 19%.

As for `O=C(Nc1ccc(Oc2ncnc3[nH]ncc23)cc1)Nc1ccc(C(F)(F)F)cc1` [4a-1], the IC50 in assay [1] (setting [6]) is less than 50 µM; in assay [2] (Homo sapiens, A875, 72 hours) it was 3 to 10 µM; in assay [3] (Homo sapiens, A-375, 72 hours), less than 50 µM; in assay [4] (Homo sapiens, HeLa), less than 50 µM. Moreover, the inhibition (commonly the change of the read-out against control, counted positive when it falls) at 10 µM on c-KIT was found to be 100%; at FGFR2, 22%.

As to `O=C(Nc1ccc(Oc2ncnc3[nH]ncc23)cc1)Nc1ccc(Cl)c(C(F)(F)F)c1` [4a-2], the IC50 in assay [1] (setting [5]) is less than 50 µM; in assay [2] (72 hours), 4.12 µM; at c-KIT, 0.507 µM; in assay [3] (72 hours) it was 2.12 µM; at FGFR2, 1.8 µM; in assay [4], less than 50 µM. In addition, the “Activity inhibition rate c-Kit (h)” value on c-KIT is 100%. At FGFR2, the “Activity inhibition rate FGFR2 (h)” value is 80%.

Consider `O=C(Nc1ccc(Oc2ncnc3[nH]ncc23)cc1)Nc1cccc(C(F)(F)F)c1` [4a-6], for which the IC50 in assay [1] (setting [6]) is less than 50 µM; in assay [2] (Homo sapiens, A875, 72 hours), 6.24 µM; at c-KIT it was 0.313 µM; in assay [3] (Homo sapiens, A-375, 72 hours), 3.45 µM; at FGFR2, less than 10 µM; in assay [4] (Homo sapiens, HeLa), less than 50 µM. Moreover, the inhibition at 10 µM is 100% at c-KIT and 56% at FGFR2.

With `O=C(Nc1ccc(Oc2ncnc3[nH]ncc23)cc1)Nc1ccc(N2CCOCC2)cc1` [4a-16, 1-(4-((1H-pyrazolopyrimidine-4-yl)oxy)phenyl)-3-(4-morpholinylphenyl)urea], the IC50 was less than 50 µM in assay [1] (setting [6]); less than 50 µM in assay [2] (Homo sapiens, A875, 72 hours); less than 50 µM in assay [3] (Homo sapiens, A-375, 72 hours); less than 50 µM in assay [4] (Homo sapiens, HeLa). Besides, at c-KIT, the inhibition at 10 µM stood at 77%.

Regarding `CC(C)(C)c1cc(NC(=O)Nc2ccc(Oc3ncnc4[nH]ncc34)c(F)c2)no1` [4a-31], the IC50 in assay [2] (72 hours) is 3 to 10 µM; at c-KIT, 0.087 µM; in assay [3] (72 hours), 3 to 10 µM; at FGFR2 it was less than 10 µM; in assay [4] it was 3 to 10 µM. Further, the “Activity inhibition rate c-Kit (h)” value on c-KIT was greater than 90%. For the same molecule, the “Activity inhibition rate FGFR2 (h)” value on FGFR2 is on record as greater than 50%.

For the molecule `O=C(Nc1ccc(NC(=O)N2C=NC=C3NNC=C32)cc1)Nc1ccc(Cl)c(C(F)(F)F)c1` [4b-5, 1-(4-(1H-pyrazolopyrimidine-4-amido)phenyl)-3-(4-chloro-3-(trifluoromethyl)phenyl)urea], the inhibition at 10 µM on c-KIT was greater than 30%; on FGFR2 it was 52%.

In the case of `COc1ccc(NC(=O)Nc2ccc(NC(=O)N3C=NC=C4NNC=C43)cc2)cc1` [4b-6, 1-(4-(1H-pyrazolopyrimidine-4-amido)phenyl)-3-(4-methoxyphenyl)urea], the IC50 in assay [1] (setting [6]) is less than 50 µM; in assay [2] (Homo sapiens, A875, 72 hours), less than 50 µM; in assay [3] (Homo sapiens, A-375, 72 hours) it was less than 50 µM. Also, the values for the inhibition at 10 µM at c-KIT and on FGFR2 were greater than 30% and 32%, respectively.

As to `Cc1cc(C)c(NC(=O)Nc2ccc(NC(=O)N3C=NC=C4NNC=C43)cc2)c(C)c1` [4b-7, 1-(4-(1H-pyrazolopyrimidine-4-amido)phenyl)-3-(2,4,6-trimethylphenyl)urea], the IC50 in assay [1] (setting [6]) is less than 50 µM; in assay [2] (Homo sapiens, A875, 72 hours), less than 50 µM; in assay [3] (Homo sapiens, A-375, 72 hours), less than 50 µM. Besides, the inhibition at 10 µM on c-KIT is greater than 30%; at FGFR2, 69%.

Take `O=C(Nc1ccc(Sc2ncnc3[nH]ncc23)cc1)Nc1ccc(C(F)(F)F)cc1` [4c-1]: the IC50 was less than 50 µM in assay [2] (Homo sapiens, A875, 72 hours) and less than 50 µM in assay [3] (Homo sapiens, A-375, 72 hours). Also, the inhibition at 10 µM at c-KIT was greater than 90%; on FGFR2, greater than 50%.

As to `O=C(Nc1ccc(Sc2ncnc3[nH]ncc23)cc1)Nc1cccc(C(F)(F)F)c1` [4c-2], the IC50 in assay [2] (72 hours) and in assay [3] (72 hours) was less than 50 µM throughout. Besides, on c-KIT, the “Activity inhibition rate c-Kit (h)” value is reported as greater than 90%. Moreover, the “Activity inhibition rate FGFR2 (h)” value at FGFR2 was greater than 50%.

With `CC(C)n1ncc2c(Oc3ccc(NC(=O)Nc4cc(C(C)(C)C)on4)cc3)ncnc21` [5a-4, 1-(5-tert-butylisoxazol-3-yl)-3-(4-(1-isopropyl-(1H-pyrazolopyrimidine-4-yl)oxy)phenyl)urea], the IC50 in assay [1] (setting [6]) was less than 50 µM; in assay [2] (Homo sapiens, A875, 72 hours), less than 50 µM; in assay [3] (Homo sapiens, A-375, 72 hours), less than 50 µM. Besides, the inhibition at 10 µM at c-KIT and at FGFR2 was greater than 30% throughout.

Values taken from US9828375B2, “4-position substituted pyrazolopyrimidine derivative, and use thereof in drug preparation” (Guangxi Wuzhou Pharmaceuticals (Group) Co., Ltd., priority 2012, dated 2017).
